In patent publication US10544138B2, “Tricyclic kinase inhibitors of MELK and methods of use” (Dana-Farber Cancer Institute, Inc., priority 2015, dated 2020):

Columns and labels:
[1] = target: PLK1 (Homo sapiens, UniProt P53350); test: Recombinant mitotic kinase assay, PLK1; format: biochemical; details: recombinant kinases
Protocol: (§1) […] assays were performed with recombinant protein of the indicated mitotic kinase (left) and AMPK family kinases (right) in the presence of THZ-4-63-1. […] Cells were treated with nocodazole (100 ng/ml) for 18 h or not treated (Asyn., asynchronous). Nocodazole-arrested mitotic cells (M) were isolated via shake-off. The attached cells enriched in G2 phase (G2) were harvested. A portion of the mitotic cells were washed off nocodazole and released into G1 phase after 4 hours of incubation (G1). […] In Panel D, mitotic lysates were prepared from the indicated cells, and treated with λ-phosphatase at 30° C. In Panel E, nocodazole-arrested mitotic cells were treated with increasing concentration of THZ-4-63-1 for 30 min. Cell lysates were subjected to immunoblotting.
(§2) To discover a selective MELK inhibitor, a few molecule scaffolds with the potential of binding to MELK were identified, including 2,4-disubstituted pyrimidines and benzonaphthyridinones. […] To investigate if THZ-4-63-1 confers selective inhibition on MELK, we tested its effect on other mitotic kinases. In assays using recombinant kinases, MELK kinase activity was 20-fold more sensitive to THZ-4-63-1, than that of Aurora A, Aurora B, CDK1, or PLK1 (FIG. 1B).

[2] = target: T1, NUAK1 (Homo sapiens, UniProt O60285); test: Recombinant AMPK family kinase assay, NUAK1; format: biochemical; details: recombinant kinases
T1 sequence (O60285 1-661): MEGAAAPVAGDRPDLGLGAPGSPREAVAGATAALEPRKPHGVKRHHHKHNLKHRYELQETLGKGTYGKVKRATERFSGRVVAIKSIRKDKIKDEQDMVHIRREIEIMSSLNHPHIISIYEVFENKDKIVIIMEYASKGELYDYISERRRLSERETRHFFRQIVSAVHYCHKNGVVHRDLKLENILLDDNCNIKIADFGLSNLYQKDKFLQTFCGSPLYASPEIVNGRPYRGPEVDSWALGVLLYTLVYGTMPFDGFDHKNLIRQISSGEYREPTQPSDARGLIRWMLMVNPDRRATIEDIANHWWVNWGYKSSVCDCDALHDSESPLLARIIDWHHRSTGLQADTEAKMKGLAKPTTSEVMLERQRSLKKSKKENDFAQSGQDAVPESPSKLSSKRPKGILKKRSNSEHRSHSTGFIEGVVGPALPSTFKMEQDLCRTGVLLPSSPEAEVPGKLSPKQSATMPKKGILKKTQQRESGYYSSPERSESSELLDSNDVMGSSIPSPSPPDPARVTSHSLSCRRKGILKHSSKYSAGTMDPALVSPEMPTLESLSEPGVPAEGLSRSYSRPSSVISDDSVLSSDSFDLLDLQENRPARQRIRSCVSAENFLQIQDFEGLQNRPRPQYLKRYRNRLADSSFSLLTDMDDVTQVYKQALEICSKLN
Protocol: as §1, §2

[3] = test system: basal breast cancer cells; test: Proliferation of basal breast cancer cells; format: cell-based
Protocol: (§3) Mitotic cells were treated with THZ-4-63-1 at indicated concentrations for 4 h. Cells were collected for immunoblotting. Panel B contains time-lapse images of U2OS-(H2B-GFP) cells treated with THZ-4-63-1 (5 μM). […] Panel C contains blots showing proteasome-mediated degradation of Cyclin B1, Aurora B and MELK in THZ-4-63-1-induced mitotic slippage. Mitotic cells were treated as in Panel A with THZ-4-63-1 (5 μM), or MG132 (10 μM), or both for 4 h. Panel D contains a graph showing quantification of cell proliferation in the indicated breast cancer cell lines, which were treated with vehicle control or THZ-4-63-1 for one week (Top) and also contains bright-field images acquired from control cells or cells treated with THZ-4-63-1 (111 nM) (Bottom). […] Cells were treated with indicated drugs, and harvested in ten days for quantification of cell growth. The bold curve depicts the theoretic prediction of an additive action between paclitaxel and THZ-4-63-1.
With the identification of a selective MELK inhibitor, we next tested if THZ-4-63-1 is an effective agent for those cancer cells. […] The high potency of THZ-4-63-1 not only confirm the previous identification of MELK as an essential kinase for breast cancer, but also poise the compound itself for immediate translational implications.

[4] = test system: MDA-MB-468; test: Cell growth with paclitaxel combination in MDA-MB-468; format: cell-based, human; details: THZ-4-63-1 33.3 or 66.6 nM plus paclitaxel 2 nM
Protocol: as §3
Because microtubule-targeting chemotherapy is the mainstay of treatment for many types of cancer including basal-like breast cancer, we asked if MELK inhibition could combine with drugs that impair microtubule dynamics. […]

Sequence of PLK1 (P53350 whole entry, species assumed): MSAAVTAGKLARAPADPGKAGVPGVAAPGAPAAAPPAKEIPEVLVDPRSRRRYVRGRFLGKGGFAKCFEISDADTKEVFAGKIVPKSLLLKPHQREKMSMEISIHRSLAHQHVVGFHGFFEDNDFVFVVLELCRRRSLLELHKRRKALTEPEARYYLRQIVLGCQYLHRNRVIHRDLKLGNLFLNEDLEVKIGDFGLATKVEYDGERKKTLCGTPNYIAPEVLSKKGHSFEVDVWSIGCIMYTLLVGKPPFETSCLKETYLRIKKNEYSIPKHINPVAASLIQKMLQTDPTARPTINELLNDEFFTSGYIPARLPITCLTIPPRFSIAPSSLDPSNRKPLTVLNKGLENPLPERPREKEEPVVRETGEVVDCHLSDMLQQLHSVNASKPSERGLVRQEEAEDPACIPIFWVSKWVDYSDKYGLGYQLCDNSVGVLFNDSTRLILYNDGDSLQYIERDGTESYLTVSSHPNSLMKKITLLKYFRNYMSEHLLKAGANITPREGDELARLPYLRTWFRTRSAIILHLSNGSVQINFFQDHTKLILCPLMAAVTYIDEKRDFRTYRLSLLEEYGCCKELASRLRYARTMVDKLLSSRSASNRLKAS

CN(C)Cc1ccc(-n2c(=O)ccc3cnc4ccc(-c5cc(Cl)c(O)c(Cl)c5)cc4c32)cc1 [THZ-4-63-1]
MELK kinase activity more sensitive than that of PLK1 [1]: 20 fold | Selectivity for MELK over NUAK1 [2]: preferentially targets MELK | IC50 ([3]; 168 h, treated one week): ~0.05 µM | Cell death at low nanomolar dose ([3]; basal breast cancer cells): nearly complete cell death | Inhibition of cell growth, combined with paclitaxel [4]: ≥ 80%
